Active and inactive are the calls of the source. No cut-off for these calls is given here.
Experiments:
[1] = molecular target: T1, Ubiquitin carboxyl-terminal hydrolase 8 (Homo sapiens) (UniProt P40818); assay: Inhibition of N-terminal His6-tagged USP8 catalytic domain (734 to 1110 residues) in HEK293T intact cells up to 100 uM in presence of HA-Ub-VS probe by HA antibody based Western blotting assay; assay type: cell-based
T1 sequence (whole entry): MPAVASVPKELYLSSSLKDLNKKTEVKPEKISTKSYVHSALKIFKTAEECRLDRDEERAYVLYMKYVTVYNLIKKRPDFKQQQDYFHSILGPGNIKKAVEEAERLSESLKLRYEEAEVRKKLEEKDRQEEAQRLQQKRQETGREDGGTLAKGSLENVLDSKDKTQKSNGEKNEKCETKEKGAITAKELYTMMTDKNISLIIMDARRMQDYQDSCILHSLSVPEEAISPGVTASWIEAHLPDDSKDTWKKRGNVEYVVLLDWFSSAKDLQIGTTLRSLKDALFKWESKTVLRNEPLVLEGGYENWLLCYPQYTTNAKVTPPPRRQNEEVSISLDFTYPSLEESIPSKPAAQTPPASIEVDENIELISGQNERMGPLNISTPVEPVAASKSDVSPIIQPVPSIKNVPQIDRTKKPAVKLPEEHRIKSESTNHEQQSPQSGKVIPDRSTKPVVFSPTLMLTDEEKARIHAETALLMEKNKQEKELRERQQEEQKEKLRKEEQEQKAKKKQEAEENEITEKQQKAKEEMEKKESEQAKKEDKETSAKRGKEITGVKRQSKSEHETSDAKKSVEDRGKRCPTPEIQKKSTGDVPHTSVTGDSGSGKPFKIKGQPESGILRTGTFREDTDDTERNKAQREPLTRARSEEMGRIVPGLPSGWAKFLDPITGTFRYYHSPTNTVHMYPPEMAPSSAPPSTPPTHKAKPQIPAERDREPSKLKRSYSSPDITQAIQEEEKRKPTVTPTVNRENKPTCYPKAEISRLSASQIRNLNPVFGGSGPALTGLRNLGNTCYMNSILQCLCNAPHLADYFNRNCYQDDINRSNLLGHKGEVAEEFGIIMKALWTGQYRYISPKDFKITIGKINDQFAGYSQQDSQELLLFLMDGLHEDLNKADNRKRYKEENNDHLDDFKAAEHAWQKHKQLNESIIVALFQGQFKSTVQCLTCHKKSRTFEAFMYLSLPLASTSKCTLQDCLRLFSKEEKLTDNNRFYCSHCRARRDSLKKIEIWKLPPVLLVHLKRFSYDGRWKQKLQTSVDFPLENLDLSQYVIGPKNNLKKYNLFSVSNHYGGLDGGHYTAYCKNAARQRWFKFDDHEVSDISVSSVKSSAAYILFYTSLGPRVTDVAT

MCF7 [2] = assay: Downregulation of ERalpha mRNA level in human MCF7 cells up to 5 uM measured after 24 hrs by RT-qPCR analysis; assay type: functional, cell-based
MCF7 [3] = assay: Antitumor activity against human MCF7 cells xenografted in BALB/c mouse assessed as reduction of EGFR phosphorylation in tumor tissue at 5 to 20 mg/kg, ip administered via gavage every other day for 14 days by immunohistochemistry analysis; assay type: functional, organism-based; details: dose 5-20 mg/kg, time 14.0 day
[4] = molecular target: T2, Ubiquitin carboxyl-terminal hydrolase 8 (Homo sapiens, UniProt P40818); assay: Inhibition of N-terminal His6-tagged USP8 (unknown origin) catalytic domain (734 to 1110 residues) expressed in Escherichia coli BL21 (DE3) cells assessed as deubiquitinating activity using ubiquitin-rhodamine -110 as substrate incubated for 30 mins followed by substrate addition measured after 30 mins by ubiquitin-rhodamine-110 based fluorometric assay
T2 sequence (P40818 whole entry): T1 sequence (whole entry)

MCF7 [5] = assay: Induction of apoptosis in human MCF7 cells assessed as increase in apoptotic cells at 5 uM incubated for 12 hrs by AnnexinV-FITC/propidium iodide staining based flow cytometry relative to control (reference value: 2.00 %); assay type: functional
[6] = Toxicity in BALB/c mouse xenografted with human MCF7 cells assessed as effect on aspartate aminotransferase level at 5 to 20 mg/kg, […] every other day measured after 14 days; assay type: organism-based; details: in vivo, 336 h, dose 5-20 mg/kg, time 14 day
MCF7 [7] = assay: Induction of apoptosis in human MCF7 cells assessed as increase in apoptotic cells at 0.2 uM incubated for 12 hrs by AnnexinV-FITC/propidium iodide staining based flow cytometry relative to control (reference value: 2.00 %); assay type: functional
[8] = Toxicity in BALB/c mouse xenografted with human MCF7 cells assessed as effect on liver at 5 to 20 mg/kg, […] every other day measured after 14 days by hematoxylin and eosin staining based analysis; assay type: organism-based; details: in vivo, 336 h, dose 5-20 mg/kg, time 14 day

inhibition [1]: Active
IC50 [4]: 1200 nM
SMILES: Cc1n[nH]c(C)c1Oc1c(O)cc(O)c2c(=O)cc(-c3ccc(N4CCN(c5ccccn5)CC4)cc3)oc12
Activity (MCF7 [2]): Active
Activity (MCF7 [3]): Active
Activity (MCF7 [5]): 14.46%
Activity [6]: Non-Toxic
Activity (MCF7 [7]): 1.9%
Activity [8]: Non-Toxic
